Measurements reported in PubChem BioAssay (NCI).
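Compound exposure: 48 hours, 5 concentrations, 96-well plates. Abbreviation: GI50, concentration required for 50% inhibition of growth. TGI denotes the concentration required for complete inhibition of growth.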

What was measured:
Assay in all cases: growth of human tumour cells (NCI), 48 h
786-0 renal = system: 786-0 renal
A498 renal = system: A498 renal
A549 NSCLC = system: A549 NSCLC
ACHN renal = system: ACHN renal
BT-549 breast = system: BT-549 breast
CAKI-1 renal = system: CAKI-1 renal
CCRF-CEM leukemia = system: CCRF-CEM leukemia
COLO 205 colon = system: COLO 205 colon
DU-145 prostate = system: DU-145 prostate
EKVX NSCLC = system: EKVX NSCLC
HCC-2998 colon = system: HCC-2998 colon
HCT-116 colon = system: HCT-116 colon
HCT-15 colon = system: HCT-15 colon
HL-60(TB) leukemia = system: HL-60(TB) leukemia
HOP-62 NSCLC = system: HOP-62 NSCLC
HS 578T breast = system: HS 578T breast
HT29 colon = system: HT29 colon
IGROV1 ovarian = system: IGROV1 ovarian
K-562 leukemia = system: K-562 leukemia
KM12 colon = system: KM12 colon
LOX IMVI melanoma = system: LOX IMVI melanoma
M14 melanoma = system: M14 melanoma
MALME-3M melanoma = system: MALME-3M melanoma
MCF7 breast = system: MCF7 breast
MDA-MB-231 breast = system: MDA-MB-231 breast
MDA-MB-435 = system: MDA-MB-435
MOLT-4 leukemia = system: MOLT-4 leukemia
NCI-H226 lung = system: NCI-H226 lung

Compound: O=C(c1ccco1)c1nc2ccc(Cl)cc2[n+]([O-])c1C(F)(F)F
- GI50 (786-0 renal): > 100 µM
- TGI (786-0 renal): > 100 µM
- GI50 (A498 renal): > 100 µM
- TGI (A498 renal): > 100 µM
- GI50 (A549 NSCLC): > 100 µM
- TGI (A549 NSCLC): > 100 µM
- GI50 (ACHN renal): > 100 µM
- TGI (ACHN renal): > 100 µM
- GI50 (BT-549 breast): > 100 µM
- TGI (BT-549 breast): > 100 µM
- GI50 (CAKI-1 renal): 95.6 µM
- TGI (CAKI-1 renal): > 100 µM
- GI50 (CCRF-CEM leukemia): 39.4 µM
- TGI (CCRF-CEM leukemia): > 100 µM
- GI50 (COLO 205 colon): > 100 µM
- TGI (COLO 205 colon): > 100 µM
- GI50 (DU-145 prostate): > 100 µM
- TGI (DU-145 prostate): > 100 µM
- GI50 (EKVX NSCLC): 96.2 µM
- TGI (EKVX NSCLC): > 100 µM
- GI50 (HCC-2998 colon): 88.4 µM
- TGI (HCC-2998 colon): > 100 µM
- GI50 (HCT-116 colon): > 100 µM
- TGI (HCT-116 colon): > 100 µM
- GI50 (HCT-15 colon): > 100 µM
- TGI (HCT-15 colon): > 100 µM
- GI50 (HL-60(TB) leukemia): > 100 µM
- TGI (HL-60(TB) leukemia): > 100 µM
- GI50 (HOP-62 NSCLC): 91.3 µM
- TGI (HOP-62 NSCLC): > 100 µM
- GI50 (HS 578T breast): > 100 µM
- TGI (HS 578T breast): > 100 µM
- GI50 (HT29 colon): > 100 µM
- TGI (HT29 colon): > 100 µM
- GI50 (IGROV1 ovarian): > 100 µM
- TGI (IGROV1 ovarian): > 100 µM
- GI50 (K-562 leukemia): > 100 µM
- TGI (K-562 leukemia): > 100 µM
- GI50 (KM12 colon): > 100 µM
- TGI (KM12 colon): > 100 µM
- GI50 (LOX IMVI melanoma): > 100 µM
- TGI (LOX IMVI melanoma): > 100 µM
- GI50 (M14 melanoma): > 100 µM
- TGI (M14 melanoma): > 100 µM
- GI50 (MALME-3M melanoma): > 100 µM
- TGI (MALME-3M melanoma): > 100 µM
- GI50 (MCF7 breast): 30.4 µM
- TGI (MCF7 breast): > 100 µM
- GI50 (MDA-MB-231 breast): 59.1 µM
- TGI (MDA-MB-231 breast): > 100 µM
- GI50 (MDA-MB-435): > 100 µM
- TGI (MDA-MB-435): > 100 µM
- GI50 (MOLT-4 leukemia): > 100 µM
- TGI (MOLT-4 leukemia): > 100 µM
- GI50 (NCI-H226 lung): > 100 µM
- TGI (NCI-H226 lung): > 100 µM
